Experimental data: patent US9127027B2, “Epoxyeicosatrienoic acid analogs and methods of making and using the same” (The Medical College of Wisconsin, Inc., priority 2011, dated 2015)
Where two headings read alike, the source gives them in different places.

Experiments:
bovine coronary artery = test: Vasorelaxant activity in bovine coronary artery rings precontracted with U-46619; format: cell-based; details: for Vascular Relax. % (10 μM): 100% relaxation = basal pre-U-46619 tension; for EC50: Bos taurus
Procedure: Vasorelaxant activity was measured in bovine coronary artery. Bovine hearts were obtained and the left anterior descending coronary artery was dissected and cleaned of connective tissue. Vessels of 1 mm diameter were cut into rings of 3 mm width as previously described (3, 27, 39). […] The vessels were suspended from a pair of stainless steel hooks in a 6-ml water-jacketed organ chamber. […] One hook was anchored to a steel rod and the other hook to a force transducer (model FT-03C; Grass Instruments, West Warwick, R.I.). Tension of the vessel was measured by an ETH-400 bridge amplifier, and the data were acquired with a MacLab 8e analog-to-digital converter and MacLab software version 3.5.6 (AD Instruments, Milford, Mass.) and stored on a Macintosh computer for subsequent data analysis.
Basal tension was set at the length-tension maximum of 3.5 g and equilibrated for 1.5 h. KCl (40 mM) was added to the chamber until reproducible maximal contractions were maintained. […] Cumulative additions of compounds were added to the chamber. Between concentration-response curves, the chambers were rinsed with fresh Krebs buffer, 40 mM KCl was administered to determine the maximum contraction, and the vessels were rinsed. Consecutive concentration-response curves were performed with 14,15-EET followed by a concentration-response curve to a compound. The experiment was always repeated with the order of the agonists reversed. […] The relaxation was plotted versus compound concentration and the EC50 determined utilizing statistical software.

[1] = test system: Spontaneously Hypertensive Rats (SHR); test: Telemetry blood pressure and heart rate in spontaneously hypertensive rats; format: in vivo, rat; details: for blood pressure after two weeks of treatment: 2 mg/d i.p. osmotic pump, vehicle 141±3.0; for heart rate: 2 mg/d i.p., vehicle 331±17.0
Source text: (§1) Telemetry Blood Pressure Measurement. To accurately detect changes in blood pressure and heart rate, telemetry transmitters (Data Sciences Inc., St. Paul, Minn.) were implanted in rats one week prior to the experimental period according to manufacturer's specifications while under pentobarbital anesthesia. In brief, an incision was made to expose the femoral artery that was occluded to allow insertion of the transmitter catheter. The catheter was secured in place with tissue glue and the transmitter body was sutured in place and the incision line was closed. Rats were allowed to recover from surgery and were returned to individual housing. A baseline arterial pressure was recorded for prior to the experimental period. Mean arterial pressure was continuously recorded throughout the experimental period.
Telemetry transmitters were implanted into male SHR as described. After the surgical recovery period, baseline mean arterial pressure was recorded. In this series of experiments, EET analogs were administered by osmotic pump (2 mg/d, i.p.) and blood pressure was continuously monitored.

[2] = test system: angiotensin II induced hypertensive rats; test: Angiotensin II hypertension: telemetry blood pressure, heart rate, sodium and protein excretion; format: in vivo, rat; details: Ang II hypertension
Source text: as §1
Telemetry transmitters were implanted into male Sprague-Dawley rats (225-275 g) as described. After recording basal blood pressure, osmotic pumps were implanted (s.c.) to deliver angiotensin at a dose of 60 ng/min. EET analogs were administered by an osmotic pump (2 mg/d, i.p.) and blood pressure was continuously monitored.
Animals were placed in a metabolic cage and urine was collected in a conical tube. Samples were stored at −80° C. until assayed. Urinary protein excretion was assessed as an index for renal injury. Protein was determined by the Bradford colorimetric method and creatinine was determined by the picric acid colorimetric method.

Human recombinant sEH = Human recombinant sEH (Homo sapiens (Human), UniProt P34913); test: Soluble epoxide hydrolase inhibition (PHOME fluorescent substrate); format: biochemical
Sequence of Human recombinant sEH (P34913 whole entry): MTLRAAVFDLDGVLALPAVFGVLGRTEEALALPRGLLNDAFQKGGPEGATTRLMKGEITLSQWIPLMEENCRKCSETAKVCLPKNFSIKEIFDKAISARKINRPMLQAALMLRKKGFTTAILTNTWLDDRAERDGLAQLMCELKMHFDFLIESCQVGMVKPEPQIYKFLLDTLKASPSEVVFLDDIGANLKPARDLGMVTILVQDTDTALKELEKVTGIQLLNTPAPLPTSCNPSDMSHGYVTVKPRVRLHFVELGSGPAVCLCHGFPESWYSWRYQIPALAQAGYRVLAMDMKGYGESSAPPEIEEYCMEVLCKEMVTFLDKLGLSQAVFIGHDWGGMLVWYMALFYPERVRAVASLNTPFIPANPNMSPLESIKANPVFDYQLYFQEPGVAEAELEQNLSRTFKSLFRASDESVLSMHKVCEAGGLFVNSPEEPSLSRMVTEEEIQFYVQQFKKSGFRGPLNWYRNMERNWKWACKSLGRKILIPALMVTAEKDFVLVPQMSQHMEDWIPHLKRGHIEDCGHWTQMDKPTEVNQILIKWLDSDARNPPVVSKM
Procedure: Compounds were tested for their ability to inhibit recombinant soluble epoxide hydrolase (sEH) protein. The assay utilizes (3-Phhenyl-oxiranyl)-acetic acid cyano-(6-methoxy-naphthalen-2-yl)-methyl ester (PHOME), a sensitive substrate for sEH that can be used to monitor the activity of both human and murine enzymes. […] Human recombinant sEH was incubated with substrate and compounds ranging in concentration from 0.1 to 1000 nM.

[3] = Table 2, read-out: Vascular relaxation EC50
[4] = bovine coronary artery, read-out: Vascular Relax. EC50
[5] = Table 1 head prints μM (Table 2 prints nM for same numbers), read-out: sEHi IC50
[6] = Table 2, read-out: SEHi activity IC50

Row | EC50 (bovine coronary artery; [3]) | EC50 (bovine coronary artery; [4]) | IC50 (Human recombinant sEH; [5]) | IC50 (Human recombinant sEH; [6]) | SMILES | Vascular Relax. % (10 μM) (bovine coronary artery) | Vascular relaxation % relaxation (10 μM) (bovine coronary artery; Table 2) | blood pressure after two weeks of treatment [1] | heart rate [1] | blood pressure at end of two-week treatment ([2]; 2 mg/d i.p., vehicle 150±3.2) | heart rate ([2]; two weeks, vehicle 396±25.0)
1 | 1600 nM | 1600 nM | – | – | CCCCCNC(=O)NCCCC/C=C\CCCCCCC(=O)N[C@@H](CC(=O)O)C(=O)O (stereo in doubt) [Compound 7, (S)-2-(13-(3-n-Pentylureido)tridec-8(Z)-enamido)succinic acid] | 91% | 91% | 131±2.0 mmHg | 316±23.0 BPM | 135±5.0 mmHg | 410±25.0 BPM
2 | 180 nM | 180 nM | 0.011 µM | 0.011 µM | CCCCCNC(=O)NCCCC/C=C\CCCCCCc1nnn[nH]1 [Compound 20] | 119% | 119% | 137±1.0 mmHg | – | – | –
3 | 320 nM | 320 nM | > 0.5 µM | > 0.5 µM | CCCCCCC(=O)N(CCCC/C=C\CCCCCCC1=NOS(=O)N1)C(C)C (centres unmarked) [Compound 26] | 109% | 109% | 150±5.0 mmHg | 344±23.0 BPM | – | –
